Each structure is given as a SMILES string.

Assay type in all cases: in vivo
In experiment [1] the test system is Avena fatua (AVEFA). Briefly: Biological Example 2 post-emergence herbicidal activity (comparative data). As to the method: (§1) Seeds of a variety of test species were sown in standard soil in pots. After cultivation for one day (pre-emergence) or after 8 days cultivation (post-emergence) under controlled conditions in a glasshouse (at 24/16°C., day/night; 14 hours light; 65% humidity), the plants were sprayed with an aqueous spray solution derived from the formulation of the “technical”(i.e. unformulated) active ingredient in acetone/water (50:50) solution containing 0.5% Tween 20 (polyoxyethylene sorbitan monolaurate, CAS Registry Number 9005-64-5). The test plants were then grown in a glasshouse under controlled conditions in a glasshouse (at 24/16°C., day/night; 14 hours light; 65% humidity) and watered twice daily. After 13 days for pre- or post-emergence, the test was evaluated visually, and an assessed percentage phytotoxicity score given for each herbicidal application on each plant/weed species (with 100%=total damage to plant; 0%=no damage to plant).
(§2) Comparative herbicidal data are given for certain exemplified compounds with 4-(prop-1-ynyl)-2,6-dimethylphenyl or 4-(chloroethynyl)-2,6-dimethylphenyl headgroups, compared to the corresponding comparative compounds with 4-ethynyl-2,6-dimethylphenyl headgroups, as follows.
(§3) Except where specified otherwise, the glasshouse screen for herbicidal activity is substantially the same as that presented in Biological Example 1 hereinabove. The weed abbreviations are as defined in Biological Example 1.

The subject of experiment [2] is Lolium perenne (LOLPE). Described as above. As to the method: as §1, §2, §3
Experiment [3] has as its system Echinochloa crus-galli (ECHCG). The experiment is described as above. Particulars: 312 h, read-out: ECHCG percentage phytotoxicity; for pest or weed control at 15.625 g/ha: 15.625 g/ha application rate; for pest or weed control at 62.5 g/ha: 62.5 g/ha application rate. As to the method: as §1, §2, §3
Experiment [4] relates to Alopecurus myosuroides (ALOMY). The description is as above. Particulars: 312 h, read-out: ALOMY percentage phytotoxicity; for pest or weed control at 15.625 g/ha: 15.625 g/ha application rate; for pest or weed control at 62.5 g/ha: 62.5 g/ha application rate. The method, then:
as §1, §2, §3

Experiment [5] has as its system Echinochloa crus-galli (ECHCG). Briefly: Biological Example 1 glasshouse screen, post-emergence herbicidal activity. Particulars: 312 h, application rate 250 g/ha, evaluated after 13 days, read-out: ECHCG percentage phytotoxicity. As to the method:
as §1
(§4) Test plants: Alopecurus myosuroides (ALOMY), Setaria faberi (SETFA), Echinochloa crus-galli (ECHCG), Solanum nigrum (SOLNI), Amaranthus retroflexus (AMARE) and Ipomoea hederacea (IPOHE). ALOMY, SETFA and ECHCG are grassy monocotyledonous weeds. SOLNI, AMARE and IPOHE are dicotyledonous (broadleaved) weeds.
(§5) Test plants: Lolium perenne (LOLPE), Alopecurus myosuroides (ALOMY), Echinochloa crus-galli (ECHCG), and Avena fatua (AVEFA). All four of these are grassy monocotyledonous weeds.

Experiment [6] concerns Alopecurus myosuroides (ALOMY). Described as above. Particulars: 312 h, application rate 250 g/ha, evaluated after 13 days, read-out: ALOMY percentage phytotoxicity. The method, then: as §1, §4, §5
The test system of experiment [7] is Triticum aestivum, wheat (TRZAW). Briefly: Biological Example 3 glasshouse screen, post-emergence, phytotoxicity on wheat. Particulars: 360 h, 15 DAA, no safener, read-out: TRZAW percentage phytotoxicity; for pest or weed control at 30 g/ha: application rate 30 g/ha; for pest or weed control at 60 g/ha: application rate 60 g/ha. As to the method: (§6) Test Method: Seeds of a variety of test species are sown in standard soil in pots. After cultivation for one day (pre-emergence) or after 12 days cultivation (post-emergence) under controlled conditions in a glasshouse (warm climate species at 24/18°C., cool climate species at 20/16°C., both at day/night; 16 hours light; 65% humidity), the plants are sprayed with an aqueous spray solution derived from the formulation of the “technical”(i.e. unformulated) active ingredient dissolved in acetone plus IF50, at a 1:20 ratio of “technical”active ingredient to IF50. The IF50 contains about 10.56 weight % Emulsogen EL™(castor oil ethoxylate, CAS Registry number 61791-12-6), about 42.22 weight % N-methylpyrrolidone, and about 42.22 weight % DPG-Monoethyl ether (dipropylene glycol mono-ethyl ether). The adjuvant X-77 (a mixture of alkyl aryl polyoxyethylene glycols and free fatty acids in isopropanol, CAS Registry number 11097-66-8) is added to the aqueous spray solution to form a 0.2% v/v solution, before spraying onto the plants.
The test plants are then grown in a glasshouse under controlled conditions in a glasshouse (at 24/18°C. or 20/16°C., day/night; 16 hours light; 65% humidity) and watered twice daily. After 15 days after application of the herbicide (15 DAA) (for post-emergence), and after 20 DAA (for pre-emergence), the test is evaluated visually, and an assessed percentage phytotoxicity score is given for each herbicidal application on each plant/weed species (with 100%=total damage to plant; 0%=no damage to plant).
These give an approximate indication of the level of selectivity on wheat for these tested compounds, when a herbicide safener such as cloquintocet-mexyl is not used: […]

The subject of experiment [8] is Avena fatua (AVEFA). Briefly: Biological Example 1 glasshouse screen, post-emergence herbicidal activity. Particulars: 312 h, application rate 250 g/ha, evaluated after 13 days, read-out: AVEFA percentage phytotoxicity. The method, then: as §1, §5
For experiment [9], the system named is Lolium perenne (LOLPE). The experiment is described as above. Particulars: 312 h, application rate 250 g/ha, evaluated after 13 days, read-out: LOLPE percentage phytotoxicity. As to the method: as §1, §5
Experiment [10] relates to Echinochloa crus galli, barnyardgrass (ECHCG). Briefly: Biological Example 3 glasshouse screen, post-emergence herbicidal activity. Particulars: 360 h, 15 DAA, no safener, read-out: ECHCG percentage phytotoxicity; for pest or weed control at 30 g/ha: application rate 30 g/ha; for pest or weed control at 60 g/ha: application rate 60 g/ha. The method, then: as §6
(§7) The test plants are then grown in a glasshouse under controlled conditions in a glasshouse (at 24/18°C. or 20/16°C., day/night; 16 hours light; 65% humidity) and watered twice daily. After 15 days after application of the herbicide (15 DAA) (for post-emergence), and after 20 DAA (for pre-emergence), the test is evaluated visually, and an assessed percentage phytotoxicity score is given for each herbicidal application on each plant/weed species (with 100%=total damage to plant; 0%=no damage to plant). […]

For experiment [11], the system named is Lolium perenne, perennial ryegrass (LOLPE). The description is as above. Particulars: 360 h, 15 DAA, no safener, read-out: LOLPE percentage phytotoxicity; for pest or weed control at 30 g/ha: application rate 30 g/ha; for pest or weed control at 60 g/ha: application rate 60 g/ha. The method, then: as §6, §7
The test system of experiment [12] is Alopecurus myosuroides, blackgrass (ALOMY). Described as above. Particulars: 360 h, 15 DAA, no safener, read-out: ALOMY percentage phytotoxicity; for pest or weed control at 30 g/ha: application rate 30 g/ha; for pest or weed control at 60 g/ha: application rate 60 g/ha. As to the method:
as §6, §7

The subject of experiment [13] is Avena fatua, wild oats (AVEFA). The experiment is described as above. Particulars: 360 h, 15 DAA, no safener, read-out: AVEFA percentage phytotoxicity; for pest or weed control at 30 g/ha: application rate 30 g/ha; for pest or weed control at 60 g/ha: application rate 60 g/ha. As to the method:
as §6, §7

Experiment [14] deals with Avena fatua (AVEFA). Briefly: Biological Example 1 glasshouse screen, pre-emergence herbicidal activity. Particulars: 312 h, application rate 250 g/ha, evaluated after 13 days, read-out: AVEFA percentage phytotoxicity. The method, then: as §1, §5
For experiment [15], the system named is Lolium perenne (LOLPE). The description is as above. Particulars: 312 h, application rate 250 g/ha, evaluated after 13 days, read-out: LOLPE percentage phytotoxicity. The method, then: as §1, §5
In experiment [16] the test system is Echinochloa crus-galli (ECHCG). The experiment is described as above. Particulars: 312 h, application rate 250 g/ha, evaluated after 13 days, read-out: ECHCG percentage phytotoxicity. As to the method:
as §1, §4, §5

The subject of experiment [17] is Alopecurus myosuroides (ALOMY). The description is as above. Particulars: 312 h, application rate 250 g/ha, evaluated after 13 days, read-out: ALOMY percentage phytotoxicity. As to the method: as §1, §4, §5
The test system of another experiment is Setaria faberi (SETFA). Briefly: Biological Example 2 post-emergence herbicidal activity (comparative data). As to the method:
as §1, §2, §3

As for `C#Cc1cc(C)c(C2=C(O)CC(CC3CCOCC3)C2=O)c(C)c1` (centres unmarked) [X-2, reference compound], the AVEFA percentage phytotoxicity with Avena fatua (AVEFA) [1] (15.625 g/ha application rate) and in the experiment on Avena fatua (AVEFA) [1] (62.5 g/ha application rate) was 90% each time. For the same compound, the results for the LOLPE percentage phytotoxicity with Lolium perenne (LOLPE) [2] (15.625 g/ha application rate) and with Lolium perenne (LOLPE) [2] (62.5 g/ha application rate) were 80% and 90%, respectively. The pest or weed control at 15.625 g/ha in experiment [3] came to 70%; in experiment [4], 60%. For the same compound, the pest or weed control at 62.5 g/ha in [3] and in experiment [4] was 90% in each case.
`CC#Cc1cc(C)c(C2=C(O)CC(Cc3cccc(F)n3)C2=O)c(C)c1` (centres unmarked) [Compound A-7]: the pest or weed control at 250 g/ha turned out to be 100% in experiment [5], 100% in experiment [6], 90% in the experiment on Avena fatua (AVEFA) [8] and 100% with Lolium perenne (LOLPE) [9]. The pest or weed control at 30 g/ha is 40% in [7]; 80% in experiment [10]; 80% in [11]; 70% in experiment [12]; 40% in [13]. Moreover, the pest or weed control at 60 g/ha in [7] came to 50%; in experiment [10] it was 100%; in experiment [11] it was 90%; in experiment [12], 80%; in [13] it was 50%.
On to `CC#Cc1cc(C)c(C2=C(O)CC(Cc3cccnc3C#CC)C2=O)c(C)c1` (centres unmarked) [Compound A-15], for which the pest or weed control at 250 g/ha in [5] turned out to be 100%; in experiment [6], 90%; in the experiment with Avena fatua (AVEFA) [14] it was 70%; in the experiment on Lolium perenne (LOLPE) [15] it was 100%; in the experiment on Avena fatua (AVEFA) [8], 100%; in the experiment with Lolium perenne (LOLPE) [9], 100%. The pest or weed control at 250 g/ha in experiment [16] stood at 100%; in experiment [17], 90%. For the same compound, the pest or weed control at 60 g/ha in [7] was determined as 30%; in experiment [10], 80%; in [11], 40%; in experiment [12] it was 50%; in experiment [13], 80%.
On to `CC#Cc1cc(C)c(C2=C(O)CC(Cc3cccc(C)n3)C2=O)c(C)c1` (centres unmarked) [Compound A-9], for which the pest or weed control at 250 g/ha in [5] is 100%; in experiment [6], 90%; in the experiment with Avena fatua (AVEFA) [14], 100%; with Lolium perenne (LOLPE) [15], 100%; in the experiment with Avena fatua (AVEFA) [8] it was 100%; with Lolium perenne (LOLPE) [9] it was 100%. For the same compound, the pest or weed control at 250 g/ha in [16] and in experiment [17] was 100% in each case. Further, the pest or weed control at 30 g/ha in [7] came to 20%; in experiment [10], 70%; in [11], 50%; in experiment [12], 70%; in experiment [13] it was 30%. Also, the pest or weed control at 60 g/ha was found to be 30% in [7]; 100% in experiment [10]; 100% in experiment [11]; 80% in experiment [12]; 30% in experiment [13].
Turning to `CC#Cc1cc(C)c(C2=C(O)CC(Cc3cccnc3)C2=O)c(C)c1` (centres unmarked) [Compound A-10], the pest or weed control at 250 g/ha is 100% in experiment [5]; 90% in experiment [6]; 90% with Avena fatua (AVEFA) [14]; 100% in the experiment on Lolium perenne (LOLPE) [15]; 90% with Avena fatua (AVEFA) [8]; 100% in the experiment on Lolium perenne (LOLPE) [9]. Also, the pest or weed control at 250 g/ha in experiment [16] came to 100%; in experiment [17] it was 80%. Also, the pest or weed control at 60 g/ha in experiment [7] turned out to be 50%; in experiment [10] it was 80%; in experiment [11], 40%; in [12], 80%; in experiment [13], 50%.
In the case of `C#Cc1cc(C)c(C2C(=O)CCC2=O)c(C)c1` [X-3, reference compound], the pest or weed control at 15.625 g/ha in experiment [3] and in experiment [4] was 0% in each case. Further, the results for the pest or weed control at 62.5 g/ha in experiment [3] and in experiment [4] were 20% and 0%, respectively. The SETFA percentage phytotoxicity in the experiment on Setaria faberi (SETFA) (15.625 g/ha application rate) and with Setaria faberi (SETFA) (62.5 g/ha application rate) was 0% each time.
As to `C#Cc1cc(C)c(C2C(=O)C3C(C2=O)[C@H]2CC[C@@H]3O2)c(C)c1` (some centres unmarked) [X-4, reference compound], the pest or weed control at 15.625 g/ha was 80% in experiment [3] and 30% in experiment [4]. The pest or weed control at 62.5 g/ha in experiment [3] and in [4] was 80% throughout. For the same compound, the SETFA percentage phytotoxicity in the experiment on Setaria faberi (SETFA) (15.625 g/ha application rate) and with Setaria faberi (SETFA) (62.5 g/ha application rate) was 40% throughout.
As to `Cc1cc(-c2ccc(F)cc2)cc(C)c1C1C(=O)CC(Cc2ccccn2)C1=O` (centres unmarked) [Compound T71, from WO 2010/069834, reference compound], the pest or weed control at 30 g/ha in experiment [7] amounted to 80%; in [10], 100%; in experiment [11], 90%; in experiment [12], 100%; in [13], 100%.

The record behind these values is patent US9107415B2, “2-(substituted-phenyl)-cyclopentane-1,3-dione compounds, and derivatives thereof” (Syngenta Limited, priority 2011, dated 2015).
